Results: patent US20140155406A1, “4-IMIDAZOPYRIDAZIN-1-YL-BENZAMIDES AND 4-IMIDAZOTRIAZIN-1-YL-BENZAMIDES BTK INHIBITORS” (priority 2011, published 2014)

Experiments:
Btk enzyme (His-Btk) = target: T1, Btk enzyme (His-Btk) (Homo sapiens, UniProt Q06187); assay: Btk enzyme activity, IMAP fluorescence polarization assay; type: biochemical; settings: 60 min pre-incubation, 5 μM ATP (Km); bin bounds given in nM
T1 construct: His; purchased Millipore 14-552
Excerpt: Inhibition of kinase activity can be measured using the Immobilized Metal Assay for Phosphochemicals (IMAP) assay. IMAP is a homogeneous fluorescence polarization (FP) assay based on affinity capture of phosphorylated peptide substrates. IMAP uses fluorescein-labeled peptide substrates that, upon phosphorylation by a protein kinase, bind to so-called IMAP nanoparticles, which are derivatized with trivalent metal complexes. Binding causes a change in the rate of the molecular motion of the peptide, and results in an increase in the FP value observed for the fluorescein label attached to the substrate peptide (Gaudet et al. A homogeneous fluorescence polarization assay adaptable for a range of protein serine/threonine and tyrosine kinases. J. Biomol. Screen (2003) 8, 164-175).
Btk enzyme activity is measured using the IMAP (immobilized metal ion affinity-based fluorescence polarization) assay as outlined below.
Btk enzyme (His-Btk (Millipore catalog#14-552), is diluted to 0.4 U/mL in KR buffer (10 mM Tris-HCl, 10 mM MgCl2, 0.01% Tween-20, 0.05% NaN3, 1 mM DTT, 2 mM MnCl2, pH 7.2).
Serial dilution log 10 from 2 mM to 63.2 nM of test compounds are made in 100% DMSO. The dilutions in DMSO are then diluted 50-fold in KR-buffer. Final compound concentration range in the assay from 10 μM to 0.316 nM.
5 μL/well of test compound in KR buffer (final DMSO concentration in the assay is 1%) is mixed with 5 μl/well of 0.4 U/mL Btk enzyme (final concentration in the assay is 0.1 U/mL). Test compounds and Btk enzyme are pre-incubated 60 minutes at room temperature, before adding 5 μL/well of 200 nM Fluorescin labeled substrate peptide (Blk/Lyntide substrate, e.g. #R7188/#R7233, Molecular Devices) in KR-buffer. Final peptide substrate concentration in assay is 50 nM. The kinase assay is started by adding 5 μL/well of 20 μM ATP in KR-buffer (final ATP concentration is 5 μM ATP, Km ATP in Btk IMAP assay). Following incubation for 2 h at room temperature the enzyme reaction is stopped by adding 40 μL/well IMAP Progressive Binding Solution (according to suppliers (Molecular Devices) protocol using 75% 1× buffer A and 25% 1× buffer B with 1:600 Progressive Binding Solution). After 60 min incubation at room temperature in the dark the FP signal is read. Fluorescence at 535 nm is measured using parallel and perpendicular filters to determine differences in rotation due to binding of the phosphorylated substrate peptide to the beads. Values are calculated as percentage of the difference in readout (ΔmPi) of the controls with and without ATP. EC50 values are determined by curve fitting of the experimental results using Activity Base.

Lyn enzyme = target: T2, Lyn enzyme (Homo sapiens, UniProt P07948); assay: Lyn enzyme activity, IMAP fluorescence polarization assay; type: biochemical; settings: 60 min pre-incubation, 2 μM ATP (Km)
T2 construct: purchased Millipore 14-510
T2 sequence (P07948 whole entry): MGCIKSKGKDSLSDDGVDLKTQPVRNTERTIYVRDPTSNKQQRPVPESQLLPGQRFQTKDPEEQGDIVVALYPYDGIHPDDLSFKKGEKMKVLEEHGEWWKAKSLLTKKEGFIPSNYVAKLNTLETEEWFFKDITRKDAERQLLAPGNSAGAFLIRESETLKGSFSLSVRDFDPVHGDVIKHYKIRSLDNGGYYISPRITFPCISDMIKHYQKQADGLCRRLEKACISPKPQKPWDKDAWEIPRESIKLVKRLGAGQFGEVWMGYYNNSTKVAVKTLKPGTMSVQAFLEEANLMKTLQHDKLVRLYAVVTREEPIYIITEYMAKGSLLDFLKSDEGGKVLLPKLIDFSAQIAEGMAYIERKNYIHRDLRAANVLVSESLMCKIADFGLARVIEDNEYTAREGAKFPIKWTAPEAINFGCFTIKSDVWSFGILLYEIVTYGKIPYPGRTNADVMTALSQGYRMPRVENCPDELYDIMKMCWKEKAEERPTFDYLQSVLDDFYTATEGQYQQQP

T1 sequence (Q06187 whole entry): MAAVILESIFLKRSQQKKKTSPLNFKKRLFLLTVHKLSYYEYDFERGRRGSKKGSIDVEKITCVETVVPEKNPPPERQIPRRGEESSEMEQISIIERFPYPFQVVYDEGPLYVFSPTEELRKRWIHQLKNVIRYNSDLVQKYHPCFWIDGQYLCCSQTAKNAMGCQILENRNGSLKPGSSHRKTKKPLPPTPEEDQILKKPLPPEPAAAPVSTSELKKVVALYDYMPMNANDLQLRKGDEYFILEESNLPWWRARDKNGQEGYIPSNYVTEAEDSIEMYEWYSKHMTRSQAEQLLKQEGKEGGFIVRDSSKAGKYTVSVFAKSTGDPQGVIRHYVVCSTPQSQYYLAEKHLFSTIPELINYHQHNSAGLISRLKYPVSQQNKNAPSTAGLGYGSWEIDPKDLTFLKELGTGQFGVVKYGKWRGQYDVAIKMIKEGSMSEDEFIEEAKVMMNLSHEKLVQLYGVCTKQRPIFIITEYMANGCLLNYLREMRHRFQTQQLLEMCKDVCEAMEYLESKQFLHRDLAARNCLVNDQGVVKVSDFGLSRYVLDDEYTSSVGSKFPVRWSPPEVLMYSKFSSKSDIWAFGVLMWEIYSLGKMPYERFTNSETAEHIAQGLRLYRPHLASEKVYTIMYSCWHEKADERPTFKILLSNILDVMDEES

EC50 (Btk enzyme (His-Btk)) [nM]	EC50 (Lyn enzyme) [nM]	Compound
< 10	≥ 1000	CC#CC(=O)N(C)[C@@H](C)c1nc(-c2ccc(C(=O)Nc3cc(CCC)ccn3)cc2)c2c(C)nccn12 [Example 24, (S)-4-(8-methyl-3-(1-(N-methylbut-2-ynamido)ethyl)imidazo[1,5-a]pyrazin-1-yl)-N-(4-propylpyridin-2-yl)benzamide]
< 10	≥ 1000	CC#CC(=O)N1CCCC[C@H]1c1nc(-c2ccc(C(=O)Nc3cc(CCC)ccn3)cc2)c2c(C)nccn12 [Example 22, (S)-4-(3-(1-but-2-ynoylpiperidin-2-yl)-8-methylimidazo[1,5-a]pyrazin-1-yl)-N-(4-propylpyridin-2-yl)benzamide]
< 10	≥ 1000	C=CC(=O)N1CCC[C@H]1c1nc(-c2ccc(C(=O)Nc3cc(CCC)ccn3)cc2)c2c(C)nccn12 [Example 9, (S)-4-(3-(1-Acryloylpyrrolidin-2-yl)-8-methylimidazo[1,5-a]pyrazin-1-yl)-N-(4-propylpyridin-2-yl)benzamide]
< 10	≥ 1000	CCCc1ccnc(NC(=O)c2ccc(-c3nc([C@@H]4CCCCN4C(=O)/C=C/CN4CCCC4)n4ccnc(C)c34)cc2)c1 [Example 35, (S,E)-4-(8-methyl-3-(1-(4-(pyrrolidin-1-yl)but-2-enoyl)piperidin-2-yl)imidazo[1,5-a]pyrazin-1-yl)-N-(4-propylpyridin-2-yl)benzamide]
< 10	≥ 1000	C=CC(=O)N[C@@H](C)c1nc(-c2ccc(C(=O)Nc3cc(CCC)ccn3)cc2)c2c(C)nccn12 [Example 23, (S)-4-(3-(1-acrylamidoethyl)-8-methylimidazo[1,5-a]pyrazin-1-yl)-N-(4-propylpyridin-2-yl)benzamide]
< 10	≥ 1000	CCCc1ccnc(NC(=O)c2ccc(-c3nc([C@H](C)NC(=O)/C=C/COC)n4ccnc(C)c34)cc2)c1 [Example 36, (S,E)-4-(3-(1-(4-methoxybut-2-enamido)ethyl)-8-methylimidazo[1,5-a]pyrazin-1-yl)-N-(4-propylpyridin-2-yl)benzamide]
